This is an account of results in US9598463B2, “Mucin hypersecretion inhibitors and methods of use” (BIOMARCK PHARMACEUTICALS, LTD., priority 2005, dated 2017).

In data set [1] the test system is methacholine-induced mucin hypersecretion. Briefly: Methacholine-induced mucin hypersecretion in ovalbumin-sensitized mouse model of asthma, BAL mucin ELISA (Balb/C mice). The data set is classed as in vivo. The conditions noted are these: for Mucin Secretion % control: peptides at 100 μM; for Mucin Secretion % of control: Table IV. From the text:
Experiments were designed to test whether or not the MANS peptide and other test peptides related thereto inhibit hypersecretion of mucin in murine airway in vivo. The ovalbumin-sensitized mouse model of allergic inflammation and asthma used in these studies was as described by Singer et al. (2004), supra. As a negative control, a control peptide containing an N-terminal myristoyl group and the same amino acids as MANS peptide but arranged in random order (i.e., the random N-terminal sequence, RNS, myristoyl-peptide 232) was tested alongside the proposed active peptides. BP2 mice, aged 6-8 wks, were immunized subcutaneously twice at weekly intervals with 1 μg of ovalbumin. After 14 days of sensitization, the animals were exposed to aerosolized ovalbumin, which causes a pronounced goblet cell hyperplasia after 72 hours. At the 72 hr time point, the secretagogue, methacholine ([…]) was delivered using a Buxco system nebulizer providing a fine aerosol for 90 seconds. Fifteen min prior to the secretagogue challenge, 50 μL of the test peptide, at 3 different concentrations (10 μM, 100 μM, or 140 μM), was administered by intratracheal route. The RNS peptide was tested at the highest dose level only (50 μL of 140 μM solution). […] Each experiment was carried out in 6 mice per point, and each set of experiments was repeated 3 times. To test strain-to-strain variations, the above experiment was repeated in Balb/C mice under similar protocol. Both stimulated and unstimulated mucin secretion, in mice treated with […] sodium acetate (data not shown), were identical to saline control. Following the methacholine challenge, the animals were sacrificed and bronchoalveolar lavage (BAL) performed on 6 animals per group for analysis of secreted mucin.
Mice were sacrificed by cervical dislocation, followed by rapid exposure of the trachea and insertion of a cannula through a small incision. Bronchoalveolar lavage (BAL) fluid was collected with 0.5 ml followed by 3×1 ml PBS containing PMSF (5 mM), EDTA (5 mM), and DTT (5 mM). BAL fluid was separated into cell-free and cell fractions via brief centrifugation prior to any analyses being performed. The cell-free supernatants were analyzed for the presence of mucin via an ELISA method using anti-mucin antibodies shown to react with mouse mucin. Specifically, a mouse anti-MUC5AC antibody that recognizes the carbohydrate portion of secreted mucin was used in these assays. Data generated from each BAL sample were normalized to total protein as determined by Bradford assay. Mucin content was expressed as the value obtained with the anti-mucin antibody minus that obtained with the non-immune control antibody. All ELISA data were statistically examined using a one-way ANOVA.

Data set [2] can be described thus: Qualitative solubility of test peptides in 0.5 N saline. The class given is physicochemical. The conditions noted are these: pH 6.5, 20° C. (table title). How it is done: Various test peptides (1 to 5 mg each) were weighed out accurately in individual 2 mL screw cap glass vials and aliquots of 25 μL of 0.5 N saline, pH 6.5, were added at 25° C. and ambient pressure. The solubility was evaluated visually. If the test peptide dissolves completely with the first aliquot of saline, its solubility was calculated and designated as more than the calculated amount. […] Similarly, if 1.7 mg of a test peptide fails to dissolve in 1.7 mL of 0.5 N saline, its solubility is stated as <1.0 mg/mL.

A short description of data set [3]: Stability of test peptides in human BALF (LC/MS/MS, first order half-life). The data set is classed as in vitro ADME. The conditions noted are these: human BALF from COPD patients. How it is done: Various test peptides in human plasma, human BALF, and CF patient mucus were analyzed to determine the susceptability of the test peptide to proteolysis in the biological fluids. […] The samples were analyzed either on the same day as received or stored at −20° C. and analyzed within the following two days.
Samples of BALF collected from COPD patients were obtained and frozen. The BALF samples were thawed, mixed together and centrifuged at 10,000×g for 10 min at 4-8° C. The supernatant (0.9 mL) was spiked with 0.1 mL of 0.5 mg/mL solution of the peptide in 75 mM sodium acetate buffer at pH 7.0 and processed and analyzed as described above.
All samples were analyzed using LC/MS/MS (MDS/SCIEX, API 4000 Model). Chromatography was performed using a Phenomenex Luna C18 column, while mass spectrometry was performed using positive ion electrospray ionization.
Calibration standards were analyzed by LCMS at concentrations of 0.100 μg/mL, 1.00 μg/mL, 10.0 μg/mL, and 100 μg/mL for each peptide, with the exception of the calibration standards for peptides myr-PEPTIDE 106, PEPTIDE 106, PEPTIDE 106-NH2, PEPTIDE 106, and cyclic peptide, cyc-PEPTIDE 106, in human mucus, which were analyzed at concentrations of 0.100 μg/mL, 1.00 μg/mL, 10.0 μg/mL, and 75 μg/mL. Standards were prepared in 1% human BALF, plasma, or mucus in 50/50 water/acetonitrile mixture containing 0.2% formic acid. The instrument response values for each set of standards were fit using a 1/(concentration)^2 linear least-squares line. Sample concentrations were calculated using the slope and intercept of this line. Concentrations outside of the calibration range were determined by extrapolating the calibration curve.
Duplicate calibration standards were analyzed at a concentration of 50 μg/mL for each peptide. The instrument response values for each set of standards were fit through an intercept of 0 using an unweighted, linear least-squares line. Sample concentrations were calculated using the slope and intercept of this line.
For the analysis of peptide concentration in BALF samples, one 50 μg/mL calibration standard prepared in a mixture of BALF, water, acetonitrile, and formic acid was analyzed with each sample set.
Watson fits the log transformed data with a least-squares line to determine parameters such as Cmax (maximum concentration), intercept, rate constant, slope, and T1/2 (half-life). The resulting kinetic parameters were based on the linear fit, not the actual concentration values.
Time-zero calibration standards in solution were not included as part of the kinetic profiles.

Where [4] appears, read: Table II, 50 μL intratracheal 15 min before methacholine.
Setting [5] is: cerebrospinal or other body fluid, 1st experiment, read-out: BALF t1/2 (1st exp.) (converted).
The mark [6] stands for this setting: cerebrospinal or other body fluid, 2nd experiment, read-out: BALF t1/2 (2nd exp.) (converted).

Where two headings read alike, the source gives them in different places. Marks after values point to notes of the source that are not given here. Where a SMILES comes first, the peptide text is derived from it. The star is where a group is joined. Myristoyl = CCCCCCCCCCCCCC(=O)*

Usually solubility stands for the concentration that dissolves in the medium under given conditions. A higher solubility goes with a readily soluble substance.

On to `CCCCCCCCCCCCCC(=O)N[C@@H](C)C(=O)N[C@@H](CCCCN)C(=O)NCC(=O)N[C@@H](CCC(=O)O)C(=O)N[C@@H](C)C(=O)N[C@@H](C)C(=O)N[C@@H](C)C(=O)N[C@@H](CCC(=O)O)C(=O)N[C@@H](CCCNC(=N)N)C(=O)N1CCC[C@H]1C(=O)NCC(=O)N[C@@H](CCC(=O)O)C(=O)N[C@@H](C)C(=O)N[C@@H](C)C(=O)N[C@H](C(=O)N[C@@H](C)C(=O)O)C(C)C` [myr-peptide 45] (Myristoyl-AKGEAAAERPGEAAVA-OH), for which the “Mucin Secretion % control” value in data set [1] (Table III) is 35** % control. Besides, the solubility in data set [2] is above 80000 µg/mL.
On to `CCCCCCCCCCCCCC(=O)NCC(=O)N[C@@H](C)C(=O)N[C@@H](CCC(N)=O)C(=O)N[C@@H](Cc1ccccc1)C(=O)N[C@@H](CO)C(=O)N[C@@H](CCCCN)C(=O)N[C@H](C(=O)N[C@@H](C)C(=O)N[C@@H](C)C(=O)N[C@@H](CCCCN)C(=O)NCC(=O)N[C@@H](CCC(=O)O)C(=O)O)[C@@H](C)O` [myr-peptide 79] (Myristoyl-GAQFSKTAAKGE-OH), for which the results for the “Mucin Secretion % control” value in data set [1] (setting [4]) and in data set [1] (Table III) were 50 % control and 48 % control, respectively. For the same compound, the solubility in data set [2] is above 2000 µg/mL.
As for `CCCCCCCCCCCCCC(=O)N[C@@H](C)C(=O)N[C@@H](C)C(=O)N[C@@H](C)C(=O)N[C@@H](CCC(=O)O)C(=O)N[C@@H](CCCNC(=N)N)C(=O)N1CCC[C@H]1C(=O)NCC(=O)N[C@@H](CCC(=O)O)C(=O)N[C@@H](C)C(=O)N[C@@H](C)C(=O)N[C@H](C(=O)N[C@@H](C)C(=O)O)C(C)C` [myr-peptide 91] (Myristoyl-AAAERPGEAAVA-OH), the “Mucin Secretion % control” value in data set [1] (Table III) was 68 % control. For the same compound, the solubility in data set [2] was below 20000 µg/mL.
With `CCCCCCCCCCCCCC(=O)NCC(=O)N[C@@H](C)C(=O)N[C@@H](CCC(N)=O)C(=O)N[C@@H](Cc1ccccc1)C(=O)N[C@@H](CO)C(=O)N[C@@H](CCCCN)C(=O)N[C@H](C(=O)N[C@@H](C)C(=O)N[C@@H](C)C(=O)N[C@@H](CCCCN)C(N)=O)[C@@H](C)O` [myr-peptide 106-NH2] (Myristoyl-GAQFSKTAAK-NH2), in data set [1] (setting [4]), the “Mucin Secretion % control” value amounted to 29.3 % control. Besides, the “Mucin Secretion % of control” value in data set [1] (peptide 10 μM) was 67*+ % of control; in data set [1] (peptide 100 μM), 17** % of control. The same compound had a solubility in data set [2] below 10000 µg/mL. Also, the values for the half-life in data set [3] (setting [5]) and in data set [3] (setting [6]) were 10.5 h and 12.8 h, respectively.
Turning to `CCCCCCCCCCCCCC(=O)NCC(=O)N[C@@H](C)C(=O)N[C@@H](CCC(N)=O)C(=O)N[C@@H](Cc1ccccc1)C(=O)N[C@@H](CO)C(=O)N[C@@H](CCCCN)C(=O)N[C@H](C(=O)N[C@@H](C)C(=O)O)[C@@H](C)O` [myr-peptide 137] (Myristoyl-GAQFSKTA-OH), the “Mucin Secretion % control” value in data set [1] (setting [4]) is recorded as 55 % control. The same compound came in with a solubility in data set [2] below 1000 µg/mL.
`CCCCCCCCCCCCCC(=O)N[C@@H](CCCNC(=N)N)C(=O)N1CCC[C@H]1C(=O)NCC(=O)N[C@@H](CCC(=O)O)C(=O)N[C@@H](C)C(=O)N[C@@H](C)C(=O)N[C@H](C(=O)N[C@@H](C)C(=O)O)C(C)C` [myr-peptide 153] (Myristoyl-RPGEAAVA-OH): the “Mucin Secretion % control” value in data set [1] (Table III) is 50 % control. The compound also returned a solubility in data set [2] below 10000 µg/mL.
With `CCCCCCCCCCCCCC(=O)NCC(=O)N[C@@H](CCCCN)C(=O)N[C@@H](CCC(N)=O)C(=O)N[C@@H](Cc1ccccc1)C(=O)N[C@@H](CO)C(=O)N[C@@H](CCCCN)C(=O)N[C@H](C(=O)N[C@@H](C)C(=O)N[C@@H](C)C(=O)N[C@@H](CCCCN)C(=O)NCC(=O)N[C@@H](CCC(=O)O)C(=O)O)[C@@H](C)O` [myr-peptide 233] (Myristoyl-GKQFSKTAAKGE-OH), the “Mucin Secretion % control” value in data set [1] (setting [4]) is listed as 21 % control. This compound also returned a solubility in data set [2] above 3000 µg/mL.
`CCCCCCCCCCCCCC(=O)NCC(=O)N[C@@H](C)C(=O)N[C@@H](CCC(N)=O)C(=O)N[C@@H](Cc1ccccc1)C(=O)N[C@@H](CO)C(=O)N[C@@H](CCCCN)C(=O)N[C@H](C(=O)N[C@@H](CCCCN)C(=O)N[C@@H](C)C(=O)N[C@@H](CCCCN)C(=O)NCC(=O)N[C@@H](CCC(=O)O)C(=O)O)[C@@H](C)O` [myr-peptide 234] (Myristoyl-GAQFSKTKAKGE-OH): the “Mucin Secretion % control” value in data set [1] (setting [4]) is given as 8 % control. Also, the solubility in data set [2] is above 3000 µg/mL. Further, the half-life in data set [3] (1st experiment, read-out: BALF t1/2 (1st exp.) (converted)) is 1.08 h.
Consider `CCCCCCCCCCCCCC(=O)NCC(=O)N[C@@H](CCCCN)C(=O)N[C@@H](CCC(N)=O)C(=O)N[C@@H](Cc1ccccc1)C(=O)N[C@@H](CO)C(=O)N[C@@H](CCCCN)C(=O)N[C@H](C(=O)N[C@@H](CCCCN)C(=O)N[C@@H](C)C(=O)N[C@@H](CCCCN)C(=O)NCC(=O)N[C@@H](CCC(=O)O)C(=O)O)[C@@H](C)O` [myr-peptide 235] (Myristoyl-GKQFSKTKAKGE-OH), for which, in data set [1] (setting [4]), the “Mucin Secretion % control” value came to 13 % control. The solubility in data set [2] was above 60000 µg/mL.
Regarding `CCCCCCCCCCCCCC(=O)NCC(=O)N[C@@H](C)C(=O)N[C@@H](CCC(N)=O)C(=O)N[C@@H](C)C(=O)N[C@@H](CO)C(=O)N[C@@H](CCCCN)C(=O)N[C@H](C(=O)N[C@@H](C)C(=O)N[C@@H](C)C(=O)N[C@@H](CCCCN)C(N)=O)[C@@H](C)O` [myr-peptide 236-NH2] (Myristoyl-GAQASKTAAK-NH2), the “Mucin Secretion % control” value in data set [1] (setting [4]) came to 51 % control. The same compound displayed a solubility in data set [2] below 10000 µg/mL. For the same compound, the half-life is 4.16 h in data set [3] (setting [5]) and 4.08 h in data set [3] (setting [6]).
Regarding “H-GAQFSKTAAKGE-OH [peptide 79, GAQFSKTAAKGE]”, in data set [1] (setting [4]), the “Mucin Secretion % control” value is listed as 10 % control. The compound also yielded a solubility in data set [2] above 60000 µg/mL.
